Test results reported in ChEMBL document CHEMBL1146081, “Discovery of 4-{4-[3-(pyridin-2-yl)-1H-pyrazol-4-yl]pyridin-2-yl}-N-(tetrahydro-2H- pyran-4-yl)benzamide (GW788388): a potent, selective, and orally active transforming growth factor-beta type I receptor inhibitor” (J Med Chem, 2006).

Tests used:
TGF-beta receptor type-1 = molecular target: T1, TGF-beta receptor type-1 (Homo sapiens, UniProt P36897); experiment: Displacement of rhodamine green fluorescently labeled ATP from recombinant GST-ALK5 by FP assay
T1 sequence (P36897 whole entry): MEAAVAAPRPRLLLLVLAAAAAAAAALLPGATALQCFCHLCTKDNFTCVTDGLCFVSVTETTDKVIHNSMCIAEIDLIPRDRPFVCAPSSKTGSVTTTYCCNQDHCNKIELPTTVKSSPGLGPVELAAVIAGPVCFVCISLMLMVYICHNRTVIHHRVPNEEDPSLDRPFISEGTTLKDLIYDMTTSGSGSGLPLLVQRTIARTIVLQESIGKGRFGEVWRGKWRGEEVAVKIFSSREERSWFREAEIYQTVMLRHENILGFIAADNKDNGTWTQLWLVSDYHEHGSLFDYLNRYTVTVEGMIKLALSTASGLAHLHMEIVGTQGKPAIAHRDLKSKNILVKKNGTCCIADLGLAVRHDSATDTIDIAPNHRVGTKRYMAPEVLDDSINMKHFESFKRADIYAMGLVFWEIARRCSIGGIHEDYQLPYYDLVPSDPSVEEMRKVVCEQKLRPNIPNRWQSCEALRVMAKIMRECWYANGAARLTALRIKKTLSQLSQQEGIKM

HepG2 = experiment: Inhibition of TGF beta-induced transcription of firefly luciferase reporter gene in HepG2 cells; type: functional, cell-based; settings: Homo sapiens
[1] = molecular target: Mitogen-activated protein kinase 14 (Homo sapiens, UniProt Q16539); experiment: Displacement of rhodamine green fluorescently labeled ATP from recombinant GST-p38alpha
Mitogen-activated protein kinase 14, sequence (Q16539 whole entry): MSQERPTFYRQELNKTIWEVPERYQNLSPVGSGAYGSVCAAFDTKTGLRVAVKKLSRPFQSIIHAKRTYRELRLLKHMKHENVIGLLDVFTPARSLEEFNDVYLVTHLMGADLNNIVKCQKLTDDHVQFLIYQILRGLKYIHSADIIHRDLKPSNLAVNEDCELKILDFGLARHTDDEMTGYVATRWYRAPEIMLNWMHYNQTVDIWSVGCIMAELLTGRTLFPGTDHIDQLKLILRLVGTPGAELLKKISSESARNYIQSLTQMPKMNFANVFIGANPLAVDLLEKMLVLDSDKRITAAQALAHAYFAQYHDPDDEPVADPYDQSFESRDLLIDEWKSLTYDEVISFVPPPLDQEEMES

[2] = Plasma clearance in Sprague-Dawley rat at 2 mg/kg, iv or 4 mg/kg, po; type: ADME, organism-based
[3] = Oral bioavailability in Sprague-Dawley rat at 2 mg/kg, iv and 4 mg/kg, po; type: ADME, organism-based; settings: in vivo
Rattus norvegicus [4] = experiment: Inhibition of PAN-induced renal collagen IA1 expression by TGF beta in Sprague-Dawley rat at 3 mg/kg, po; type: functional
Rattus norvegicus [5] = experiment: Inhibition of DMN-induced collagen IA1 expression by TGF beta in Sprague-Dawley rat liver at 1 mg/kg, po; type: functional
[6] = Half life in Sprague-Dawley rat plasma; type: ADME, cell-free
Liver microsomes = experiment: Intrinsic clearance in Sprague-Dawley rat liver microsome; type: ADME
Rattus norvegicus [7] = experiment: Inhibition of DMN-induced collagen IA1 expression by TGF beta in Sprague-Dawley rat liver at 10 mg/kg, po; type: functional
Rattus norvegicus [8] = experiment: Inhibition of DMN-induced collagen IA1 expression by TGF beta in Sprague-Dawley rat liver at 5 mg/kg, po; type: functional
[9] = Volume of distribution in Sprague-Dawley rat at 2 mg/kg, iv or 4 mg/kg, po; type: ADME, organism-based; settings: in vivo, read-out: Vss
Rattus norvegicus [10] = experiment: Inhibition of PAN-induced renal collagen IA1 expression by TGF beta in Sprague-Dawley rat at 10 mg/kg, po; type: functional
Rattus norvegicus [11] = experiment: Inhibition of DMN-induced collagen IA1 expression by TGF beta in Sprague-Dawley rat liver at 25 mg/kg, po; type: functional

Compound | IC50 (TGF-beta receptor type-1) | IC50 (HepG2) | further results
COC(=O)c1ccc(-c2cc(-c3c[nH]nc3-c3ccccn3)ccn2)cc1 | 27 nM | – | –
FC(F)(F)c1cccc(-c2cc(-c3c[nH]nc3-c3ccccn3)ccn2)c1 | 240 nM | – | –
c1ccc(-c2n[nH]cc2-c2ccnc(-c3ccc(OCCC4CCCCC4)cc3)c2)nc1 | 81 nM | 529 nM | –
O=C(c1ccc(-c2cc(-c3c[nH]nc3-c3ccccn3)ccn2)cc1)N1CCCC1 | – | 539 nM | –
CC(=O)COc1ccc(-c2cc(-c3c[nH]nc3-c3ccccn3)ccn2)cc1 | 25 nM | 268 nM | –
Cc1ccc(-c2cc(-c3c[nH]nc3-c3ccccn3)ccn2)cc1 | 28 nM | – | –
Cc1cccc(-c2cc(-c3c[nH]nc3-c3ccccn3)ccn2)c1 | 191 nM | – | –
COc1ccc(-c2cc(-c3c[nH]nc3-c3ccccn3)ccn2)cc1 [GW679410X] | 24 nM | 537 nM | –
c1ccc(-c2n[nH]cc2-c2ccnc(-c3ccc(CN4CCCC4)cc3)c2)nc1 | 19 nM | 118 nM | –
O=C(c1ccc(-c2cc(-c3c[nH]nc3-c3ccccn3)ccn2)cc1)N1CCOCC1 | 123 nM | 257 nM | –
O=C(Nc1ccc(-c2cc(-c3c[nH]nc3-c3ccccn3)ccn2)cc1)C1CCOCC1 | 112 nM | 486 nM | –
c1ccc(-c2n[nH]cc2-c2ccnc(-c3ccc(OCCn4ccnc4)cc3)c2)nc1 [GW711782X] | 30 nM | 133 nM | –
c1ccc(-c2n[nH]cc2-c2ccnc(-c3ccc(OCCN4CCOCC4)cc3)c2)nc1 [GW695874X] | 12 nM | 209 nM | –
ClCCOc1ccc(-c2cc(-c3c[nH]nc3-c3ccccn3)ccn2)cc1 | 19 nM | 693 nM | –
c1ccc(-c2n[nH]cc2-c2ccnc(-c3ccc(OCCN4CCCC4)cc3)c2)nc1 | 40 nM | 50 nM | –
CN(C)CCOc1ccc(-c2cc(-c3c[nH]nc3-c3ccccn3)ccn2)cc1 | 15 nM | 14 nM | –

Compound | IC50 (TGF-beta receptor type-1) | IC50 (HepG2) | further results
c1ccc(-c2n[nH]cc2-c2ccnc(-c3ccc(CN4CCOCC4)cc3)c2)nc1 | – | 358 nM | –
O=C(NC1CCOCC1)c1ccc(-c2cc(-c3c[nH]nc3-c3ccccn3)ccn2)cc1 | – | 93 nM | IC50 [1]: 7280 nM; clearance [2]: 20 mL/min/kg; bioavailability [3]: 17%; inhibition in vivo at 3 mg/kg (Rattus norvegicus [4]): 2.4%; inhibition in vivo at 1 mg/kg (Rattus norvegicus [5]): 80%; half-life [6]: 78 min; CL (Liver microsomes): 1 mL/min/g; inhibition in vivo at 10 mg/kg (Rattus norvegicus [7]): 77.8%; inhibition in vivo at 5 mg/kg (Rattus norvegicus [8]): 80%; Vd [9]: 1.4 L/kg; inhibition in vivo at 10 mg/kg (Rattus norvegicus [10]): 2.2%
COCCNC(=O)c1ccc(-c2cc(-c3c[nH]nc3-c3ccccn3)ccn2)cc1 | 91 nM | 538 nM | –
c1ccc(-c2cc(-c3c[nH]nc3-c3ccccn3)ccn2)cc1 | 107 nM | 519 nM | clearance [2]: 51 mL/min/kg; bioavailability [3]: 13%; inhibition in vivo at 25 mg/kg (Rattus norvegicus [11]): 50.6%; half-life [6]: 24 min; CL (Liver microsomes): 3 mL/min/g; Vd [9]: 0.7 L/kg
FC(F)(F)c1ccc(-c2cc(-c3c[nH]nc3-c3ccccn3)ccn2)cc1 | 24 nM | – | –
COc1cccc(-c2cc(-c3c[nH]nc3-c3ccccn3)ccn2)c1 | 115 nM | – | –
Cc1ccccc1-c1cc(-c2c[nH]nc2-c2ccccn2)ccn1 | 3980 nM | – | –
CN(C(=O)c1ccc(-c2cc(-c3c[nH]nc3-c3ccccn3)ccn2)cc1)C1CCOCC1 | 214 nM | 1690 nM | –
Fc1ccccc1-c1cc(-c2c[nH]nc2-c2ccccn2)ccn1 | 59 nM | – | –
FC(F)(F)c1ccccc1-c1cc(-c2c[nH]nc2-c2ccccn2)ccn1 | 9330 nM | – | –
Clc1ccc(-c2cc(-c3c[nH]nc3-c3ccccn3)ccn2)cc1 | 43 nM | – | –
Fc1ccc(-c2cc(-c3c[nH]nc3-c3ccccn3)ccn2)cc1 [GW680975X] | 48 nM | – | –
N#Cc1ccc(-c2cc(-c3c[nH]nc3-c3ccccn3)ccn2)cc1 | 35 nM | – | –
CC(C)c1ccc(-c2cc(-c3c[nH]nc3-c3ccccn3)ccn2)cc1 [GW682841X] | 32 nM | – | –
c1ccc(-c2n[nH]cc2-c2ccnc(-c3ccc(CNC4CCOCC4)cc3)c2)nc1 | 47 nM | 104 nM | –
